Patent US10689399B2, “Substituted 3,4,5,6,8,10,14,14a-octahydro-2h-2,6-methanopyrido[1′,2′:4,5]pyrazino[2,1-b][1,3]oxazocines and methods for treating viral infections” (Gilead Sciences, Inc., priority 2012, dated 2020)

tested on: HIV-IIIb; assay: Antiviral assay in MT4 cells; assay type: cell-based; conditions: Human immunodeficiency virus 1, IIIB, MT4, 120 h, MT4 cells infected with HIV-IIIb, 5 days, CellTiter-Glo; read-out: EC50 nM in MT-4
Method: For the antiviral assay utilizing MT4 cells, 0.4 μL of 189X test concentration of 3-fold serially diluted compound in DMSO was added to 40 μL of cell growth medium (RPMI 1640, 10% FBS, 1% penicilline/Streptomycine, 1% L-Glutamine, 1% HEPES) in each well of 384-well assay plates (10 concentrations) in quidruplicate.
1 mL aliquots of 2×10^6 MT4 cells are pre-infected for 1 and 3 hours respectively at 37° C. with 25 μL (MT4) or of either cell growth medium (mock-infected) or a fresh 1:250 dilution of an HIV-IIIb concentrated ABI stock (0.004 m.o.i. for MT4 cells). Infected and uninfected cells are diluted in cell growth medium and 35 μL of 2000 (for MT4) cells is added to each well of the assay plates.
Assay plates were then incubated in a 37° C. incubator. After 5 days of incubation, 25 μL of 2× concentrated CellTiter-Glo™ Reagent (catalog # G7573, Promega Biosciences, Inc., Madison, Wis.) was added to each well of the assay plate. Cell lysis was carried out by incubating at room temperature for 2-3 minutes, and then chemiluminescence was read using the Envision reader (PerkinElmer).

SMILES	EC50
O=C(NCc1ccc(F)cc1F)c1cn2c(c(O)c1=O)C(=O)N1C(C2)[N@]2CCC[C@H]1C2 (stereo partly drawn) [Compound 19, (1R,5S)—N-(2,4-difluorobenzyl)-8-hydroxy-7,9-dioxo-2,3,4,5,7,9,13,13a-octahydro-1,5-methanopyrido[1′,2′:4,5]pyrazino[1,2-a][1,3]diazepine-10-carboxamide]	2.8 nM
O=C(NCc1ccc(F)cc1F)c1cn2c(c(O)c1=O)C(=O)N1C(C2)[N@@]2CCC[C@@H]1C2 (stereo partly drawn) [Compound 20, (1S,5R)—N-(2,4-difluorobenzyl)-8-hydroxy-7,9-dioxo-2,3,4,5,7,9,13,13a-octahydro-1,5-methanopyrido[1′,2′:4,5]pyrazino[1,2-a][1,3]diazepine-10-carboxamide]	3.3 nM
C[C@H](NC(=O)c1cn2c(c(O)c1=O)C(=O)N1[C@@H]3CC[C@@H](C3)O[C@H]1C2)c1ccc(F)cc1 [Compound 21, (2S,5R,13aS)—N—((S)-1-(4-fluorophenyl)ethyl)-8-hydroxy-7,9-dioxo-2,3,4,5,7,9,13,13a-octahydro-2,5-methanopyrido[1′,2′:4,5]pyrazino[2,1-b][1,3]oxazepine-10-carboxamide]	38.3 nM
C[C@H](NC(=O)c1cn2c(c(O)c1=O)C(=O)N1[C@H]3CC[C@H](C3)O[C@@H]1C2)c1ccc(F)cc1 [Compound 22, (2R,5S,13aR)—N—((S)-1-(4-fluorophenyl)ethyl)-8-hydroxy-7,9-dioxo-2,3,4,5,7,9,13,13a-octahydro-2,5-methanopyrido[1′,2′:4,5]pyrazino[2,1-b][1,3]oxazepine-10-carboxamide]	64.3 nM
O=C(NCc1ccccc1F)c1cn2c(c(O)c1=O)C(=O)N1[C@@H]3CC[C@@H](C3)O[C@H]1C2 [Compound 23, (2 S,5R,13aS)—N-(2-fluorobenzyl)-8-hydroxy-7,9-dioxo-2,3,4,5,7,9,13,13a-octahydro-2,5-methanopyrido[1′,2′:4,5]pyrazino[2,1-b][1,3]oxazepine-10-carboxamide]	2.3 nM
O=C(NCc1cc(F)cc(F)c1)c1cn2c(c(O)c1=O)C(=O)N1[C@@H]3CC[C@@H](C3)O[C@H]1C2 [Compound 24, (2 S,5R,13aS)—N-(3,5-difluorobenzyl)-8-hydroxy-7,9-dioxo-2,3,4,5,7,9,13,13a-octahydro-2,5-methanopyrido[1′,2′: 4,5]pyrazino[2,1-b][1,3]oxazepine-10-carboxamide]	6.1 nM
O=C(NCc1ccc(F)c(C(F)(F)F)c1)c1cn2c(c(O)c1=O)C(=O)N1[C@@H]3CC[C@@H](C3)O[C@H]1C2 [Compound 25, (2S,5R,13aS)—N-(4-fluoro-3-(trifluoromethyl)benzyl)-8-hydroxy-7,9-dioxo-2,3,4,5,7,9,13,13a-octahydro-2,5-methanopyrido[1′,2′:4,5]pyrazino[2,1-b][1,3]oxazepine-10-carboxamide]	26.2 nM
O=C(NCc1ccc(Cl)c(F)c1)c1cn2c(c(O)c1=O)C(=O)N1[C@@H]3CC[C@@H](C3)O[C@H]1C2 [Compound 26, (2 S,5R,13aS)—N-(4-chloro-3-fluorobenzyl)-8-hydroxy-7,9-dioxo-2,3,4,5,7,9,13,13a-octahydro-2,5-methanopyrido[1′,2′: 4,5]pyrazino[2,1-b][1,3]oxazepine-10-carboxamide]	10.3 nM
O=C(NC1(c2ccc(F)cc2F)CC1)c1cn2c(c(O)c1=O)C(=O)N1C(C2)O[C@H]2CC[C@@H]1C2 (stereo partly drawn) [Compound 27, (2 S,5R)—N-(1-(2,4-difluorophenyl)cyclopropyl)-8-hydroxy-7,9-dioxo-2,3,4,5,7,9,13,13a-octahydro-2,5-methanopyrido[1′,2′:4,5]pyrazino[2,1-b][1,3]oxazepine-10-carboxamide]	4.4 nM
O=C(NC1(c2ccc(F)cc2F)CC1)c1cn2c(c(O)c1=O)C(=O)N1C(C2)O[C@H]2CCC[C@@H]1C2 (stereo partly drawn) [Compound 28, (2 S,6R)—N-(1-(2,4-difluorophenyl)cyclopropyl)-9-hydroxy-8,10-dioxo-3,4,5,6,8,10,14,14a-octahydro-2H-2,6-methanopyrido[1′,2′:4,5]pyrazino[2,1-b][1,3]oxazocine-11-carboxamide]	15.6 nM
O=C(NC1(c2ccc(F)cc2F)CC1)c1cn2c(c(O)c1=O)C(=O)N1C(C2)O[C@@H]2CCC[C@H]1C2 (stereo partly drawn) [Compound 29, (2R,6S)—N-(1-(2,4-difluorophenyl)cyclopropyl)-9-hydroxy-8,10-dioxo-3,4,5,6,8,10,14,14a-octahydro-2H-2,6-methanopyrido[1′,2′:4,5]pyrazino[2,1-b][1,3]oxazocine-11-carboxamide]	13.9 nM
O=C(NC1(c2ccc(F)cc2F)CC1)c1cn2c(c(O)c1=O)C(=O)N1C(C2)O[C@@H]2CC[C@H]1C2 (stereo partly drawn) [Compound 31, (2R,5S)—N-(1-(2,4-difluorophenyl)cyclopropyl)-8-hydroxy-7,9-dioxo-2,3,4,5,7,9,13,13a-octahydro-2,5-methanopyrido[1′,2′:4,5]pyrazino[2,1-b][1,3]oxazepine-10-carboxamide]	9 nM
O=C(NC1(c2ccc(F)cc2F)CCC1)c1cn2c(c(O)c1=O)C(=O)N1C(C2)O[C@H]2CC[C@@H]1C2 (stereo partly drawn) [Compound 32, (2S,5R)—N-(1-(2,4-difluorophenyl)cyclobutyl)-8-hydroxy-7,9-dioxo-2,3,4,5,7,9,13,13a-octahydro-2,5-methanopyrido[1′,2′: 4,5]pyrazino[2,1-b][1,3]oxazepine-10-carboxamide]	14 nM
O=C(NC1(c2ccc(F)cc2F)CCCC1)c1cn2c(c(O)c1=O)C(=O)N1C(C2)O[C@H]2CC[C@@H]1C2 (stereo partly drawn) [Compound 33, (2S,5R)—N-(1-(2,4-difluorophenyl)cyclopentyl)-8-hydroxy-7,9-dioxo-2,3,4,5,7,9,13,13a-octahydro-2,5-methanopyrido[1%2′: 4,5]pyrazino[2,1-b][1,3]oxazepine-10-carboxamide]	43.5 nM
O=C(NC1(c2ccc(F)cc2F)CCOCC1)c1cn2c(c(O)c1=O)C(=O)N1C(C2)O[C@H]2CC[C@@H]1C2 (stereo partly drawn) [Compound 35, (2S,5R)—N-(4-(2,4-difluorophenyl)tetrahydro-2H-pyran-4-yl)-8-hydroxy-7,9-dioxo-2,3,4,5,7,9,13,13a-octahydro-2,5-methanopyrido[1′,2′:4,5]pyrazino[2,1-b][1,3]oxazepine-10-carboxamide]	157 nM
O=C(N[C@@H](c1ccc(F)cc1F)C(F)(F)F)c1cn2c(c(O)c1=O)C(=O)N1C(C2)O[C@H]2CC[C@@H]1C2 (stereo partly drawn) [Compound 36, (2S,5R)—N—((S)-1-(2,4-difluorophenyl)-2,2,2-trifluoroethyl)-8-hydroxy-7,9-dioxo-2,3,4,5,7,9,13,13a-octahydro-2,5-methanopyrido[1′,2′:4,5]pyrazino[2,1-b][1,3]oxazepine-10-carboxamide]	7.6 nM
C[C@H]1CO[C@@H]2Cn3cc(C(=O)NC4(c5ccc(F)cc5F)CC4)c(=O)c(O)c3C(=O)N12 [Compound 37, (3S,11aR)—N-(1-(2,4-difluorophenyl)cyclopropyl)-6-hydroxy-3-methyl-5,7-dioxo-2,3,5,7,11,11a-hexahydrooxazolo[3,2-a]pyrido[1,2-d]pyrazine-8-carboxamide]	10.2 nM
O=C(NCc1c(F)cc(F)cc1F)c1cn2c(c(O)c1=O)C(=O)N1[C@H]3CC[C@H](C3)[C@@H]1C2 [Compound 41, (1R,4S,12aR)-7-hydroxy-6,8-dioxo-N-(2,4,6-trifluorobenzyl)-1,2,3,4,6,8,12,12a-octahydro-1,4-methanodipyrido[1,2-a:1′,2′-d]pyrazine-9-carboxamide]	2.1 nM
O=C(NCc1c(F)cc(F)cc1F)c1cn2c(c(O)c1=O)C(=O)N1[C@H]3CC[C@H](C3)O[C@@H]1C2 [Compound 42, (2R,5S,13aR)-8-hydroxy-7,9-dioxo-N-(2,4,6-trifluorobenzyl)-2,3,4,5,7,9,13,13a-octahydro-2,5-methanopyrido[1′,2′:4,5]pyrazino[2,1-b][1,3]oxazepine-10-carboxamide]	2.5 nM
C[C@@H](NC(=O)c1cn2c(c(O)c1=O)C(=O)N1[C@H]3CC[C@H](C3)[C@@H]1C2)c1ccc(F)cc1F [Compound 43, (12aR)—N—((R)-1-(2,4-difluorophenyl)ethyl)-7-hydroxy-6,8-dioxo-1,2,3,4,6,8,12,12a-octahydro-1,4-methanodipyrido[1,2-a:1′,2′-d]pyrazine-9-carboxamide]	6.9 nM

same assay, conditions: Human immunodeficiency virus 1, IIIB, MT4, 120 h, read-out: EC50 nM in MT-4, MT4 cells infected with HIV-IIIb, 5 days, CellTiter-Glo

SMILES	EC50
O=C(NC1(c2ccc(F)cc2F)CCCCC1)c1cn2c(c(O)c1=O)C(=O)N1C(C2)O[C@H]2CC[C@@H]1C2 (stereo partly drawn) [Compound 34, (2S,5R)—N-(1-(2,4-difluorophenyl)cyclohexyl)-8-hydroxy-7,9-dioxo-2,3,4,5,7,9,13,13a-octahydro-2,5-methanopyrido[1′,2′: 4,5]pyrazino[2,1-b][1,3]oxazepine-10-carboxamide]	422 nM
C[C@H]1C[C@@H]2C[C@H]1O[C@H]1Cn3cc(C(=O)NCc4ccc(F)cc4F)c(=O)c(O)c3C(=O)N21 [Compound 39, (2R,3S,5R,13aS)—N-(2,4-difluorobenzyl)-8-hydroxy-3-methyl-7,9-dioxo-2,3,4,5,7,9,13,13a-octahydro-2,5-methanopyrido[1′,2′:4,5]pyrazino[2,1-b][1,3]oxazepine-10-carboxamide]	3.6 nM
